Results on 1 molecule are retold here after patent publication US20060052430A1, “Antihistamines for increased tolerance to extreme heat” (priority 2004, published 2006).

Series [1] relates to conscious rats.
The conditions of series [2]: in vivo; cited from earlier work.
The test system of series [3] is rat. The following applies: literature; cited from earlier work.
Series [4] has as its system chickens. The following applies: cimetidine in the diet, stress was not heat; cited from earlier work.
The mark [5] stands for this setting: conscious rats, i.v. 10 mg/kg in 3% EtOH 30 minutes prior to heat exposure at 44° C. ± 1.

`CN/C(=N/CCSCc1nc[nH]c1C)NC#N` [Cimetidine, cimetidine]: the “Core body temperature after onset of heat stroke until heat shock, vs controls” value in series [1] (FIG. 1) is recorded as “lower core body temperature”. In series [1] (FIG. 1, cimetidine pretreated animals), the “Time a lower, non-pathological core temperature is maintained in extreme heat, vs controls” value was 2-4 times longer. Moreover, in series [1] (FIG. 2), the “Time of MAP blood pressure crash, vs controls” value is listed as “delayed”. Further, in series [1] (cimetidine pretreatment, P<0.05), the “Increase of interval between initiation of exposure to extreme heat and heat stroke crash to 40 mmHg, vs control” value is given as 2.6 fold. In series [1] (setting [5]), the “Max. HR (heart rate)” value was 532 ± 28 BPM ± SEM, the “Max. MAP (mean arterial pressure)” value was 173 ± 23 mmHg ± SEM and the “Max. TB (body temperature)” value was 41.9 ± 0.9 °C ± SEM. Further, the “Heat Tolerance (time of heat exposure until heat shock, TB ≧ 41.3° C. and MAP <40 mmHg)” value in series [1] (conscious rats, i.v. 10 mg/kg in 3% EtOH 30 minutes prior to heat exposure at 44° C. ± 1, p<0.05 vs control) is 315 ± 61 minutes ± SEM. For the same molecule, the “Heart rate in the interval from exposure to heat stroke, MAP crash, vs controls” value in series [1] (rat, in vivo) is “did not differ”. For the same molecule, in series [2], the Half-life is 2 h. For the same molecule, the “Effect in heat-induced brain injury (blood-brain barrier permeability, cerebral blood flow disturbances, edema, cell reactions)” value in series [3] is “beneficial”. In addition, the Stress-induced modulations entry in series [4] was “reduced”.
